The results in this text go back to paper PMC6335354, “Chitosan Grafted With β-Cyclodextrin: Synthesis, Characterization, Antimicrobial Activity, and Role as Absorbefacient and Solubilizer” (Frontiers in Chemistry, 2019).

The structures appear in SMILES notation. In brackets after ≈: the same amount, converted by molar mass. Structures can show the parent of a compound that is named as a salt. Where two headings read alike, the source gives them in different places.

The test system of series [1] is S. xylosus. Description: Uptake of doxorubicin hydrochloride by flow cytometry (FCS). It is filed as cell-based, Staphylococcus xylosus. The settings on record: 50 μmol/L doxorubicin hydrochloride, CD-g-CS 0.5, 2, 5 mg/mL, 1 h, 37°C. How it is done:
The cultured S. xylosus in the logarithmic phase were mixed with CD-g-CS (5, 2, or 0.5 mg/mL) containing 50 μmol/L doxorubicin hydrochloride. The mixtures were incubated at 37°C for 1 h. Subsequently, the S. xylosus solutions were centrifuged, washed three times with PBS (pH = 7.2), and resuspended in 500 μL PBS. For each sample, S. xylosus was sorted using a Flow Cytometry System (FCS). S. xylosus treated with only doxorubicin hydrochloride served as a control.
Background: In flow cytometry, cells or beads pass a laser one at a time.

Series [2] has as its system S. xylosus. Description: Uptake of doxorubicin hydrochloride by CLSM. It counts as cell-based, Staphylococcus xylosus. The settings on record: 50 μmol/L doxorubicin hydrochloride, 2 mg/mL CD-g-CS, 30 min, 1 and 3 h. Here is the method:
Cultured S. xylosus in the logarithmic phase was mixed with 2 mg/mL CD-g-CS containing 50 μmol/L doxorubicin hydrochloride. The mixtures were incubated at 37°C for 30 min, 1 or 3 h. The mixtures of S. xylosus were then centrifuged, washed three times, and re-suspended in 500 μL PBS (pH = 7.2). Each sample with S. xylosus was placed on a glass slide and observed by confocal laser scanning microscopy (CLSM). S. xylosus treated with only doxorubicin hydrochloride for 30 min, 1 or 3 h served as the control.

The nature of a further series: physchem. The settings on record: thermodynamic from solid. Here is the method: Aqueous solubility measurements were conducted according to the method of Wang and Wang ([2000]). […] The mixture was agitated until reaching equilibrium with water in the equilibrium cell and then kept for 30 min. A known amount of the upper layer of the mixture was removed from the equilibrium cell and diluted with distilled water. The calibration curve established by ultraviolet–visible spectrophotometry (UV–Vis) was used to determine the concentration of the solution.

Series [3] can be described thus: Solubilization of sulfonamides with CD-g-CS (UV-Vis). The settings on record: for solubility at 2 h: 25 °C, aqueous with cosolvent or surfactant or cyclodextrin, thermodynamic from solid, solubility with CD-g-CS. Here is the method:
Acetic acid [1 mL, 1 % (v/v)] was used to dissolve 10 mg of CD-g-CS, and the pH of the solution was adjusted to be similar to that of the distilled water. […] A vortex mixer was used to mix the suspension followed by sonication for 20 min. The mixture was then stirred for 2 h at 25°C followed by the centrifugation of the suspension at 8,000 r/min for 10 min. The supernatant was filtered using a membrane with 0.45-μm pore size.

The conditions of series [4]: added 6 μg/mL (sulfamethoxazole 8 μg/mL). Here is the method: The stability test was performed by keeping the samples for 0h, 1h, 2h, 4h, 6h, 8h, 24h at room temperature before analysis. […] S2.

Take `COc1cccc2c1C(=O)c1c(O)c3c(c(O)c1C2=O)C[C@@](O)(C(=O)CO)C[C@@H]3O[C@H]1C[C@H](N)[C@H](O)[C@H](C)O1` [doxorubicin hydrochloride]: the “uptake of doxorubicin hydrochloride (fluorescence intensity, FCS)” value with S. xylosus [1] was “very low”. Also, the “uptake of doxorubicin hydrochloride (fluorescence intensity, CLSM)” value with S. xylosus [2] is given as “very weak”.

The solubility is the concentration that dissolves in the medium under given conditions. A high value points to a readily soluble substance. For the molecule `Nc1ccc(S(=O)(=O)Nc2ncccn2)cc1` [sulfadiazine], the solubility in the series “physchem” (water) came out at 26 ± 1.68 µg/mL (≈ 104 µM). The solubility at 2 h amounted to 147 ± 7.05 µg/mL (≈ 587 µM) in series [3] (10 mg/mL CD-g-CS solution, with 10 mg/mL CD-g-CS (QCD = 0.6 × 10^2 μmol/g)) and 236 ± 4.25 µg/mL (≈ 943 µM) in series [3] (10 mg/mL CD-g-CS solution, with 10 mg/mL CD-g-CS (QCD = 0.643 × 10^3 μmol/g)). For the same molecule, the “solubility enhancement compared to the aqueous solution” value in series [3] (with 10 mg/mL CD-g-CS (QCD = 0.6 × 10^2 μmol/g)) is “approximately 5.6 times”; in series [3] (with 10 mg/mL CD-g-CS (QCD = 0.643 × 10^3 μmol/g)) it was 9.1 times. Further, the Measured concentration is 5.98 ± 0.078 µg/mL in series [4] (0h at room temperature); 6.04 ± 0.058 µg/mL in series [4] (1h at room temperature); 6.13 ± 0.013 µg/mL in series [4] (2h at room temperature); 5.89 ± 0.047 µg/mL in series [4] (4h at room temperature); 5.95 ± 0.055 µg/mL in series [4] (6h at room temperature); 6.14 ± 0.043 µg/mL in series [4] (8h at room temperature). For the same molecule, the Measured concentration in series [4] (24h at room temperature) was 6.02 ± 0.054 µg/mL.

For the molecule `COc1cc(NS(=O)(=O)c2ccc(N)cc2)ncn1` [sulfamonomethoxine], the solubility in the series “physchem” (distilled water) was 69 ± 1.59 µg/mL (≈ 246 µM). Further, the concentration in solution in series [3] (solubility at 2 h) came to 283 ± 13 µg/mL (≈ 1010 µM). Further, the Measured concentration amounted to 6.09 ± 0.060 µg/mL in series [4] (0h at room temperature); 6.09 ± 0.026 µg/mL in series [4] (1h at room temperature); 5.93 ± 0.021 µg/mL in series [4] (2h at room temperature); 6.12 ± 0.018 µg/mL in series [4] (4h at room temperature); 5.88 ± 0.018 µg/mL in series [4] (6h at room temperature); 6.12 ± 0.046 µg/mL in series [4] (8h at room temperature). The molecule further came in with a Measured concentration in series [4] (24h at room temperature) of 6.13 ± 0.015 µg/mL.
